This note sets out measurements from patent US9133158B2, “Bicyclic dihydroisoquinoline-1-one derivatives” (Hoffmann-La Roche Inc., priority 2011, dated 2015).

Each structure is given as a SMILES string.

The target of one assay is T1, human CYP11B1 (Homo sapiens, UniProt P15538).
T1 construct: expressed in transfected cells
T1 sequence (P15538 25-503): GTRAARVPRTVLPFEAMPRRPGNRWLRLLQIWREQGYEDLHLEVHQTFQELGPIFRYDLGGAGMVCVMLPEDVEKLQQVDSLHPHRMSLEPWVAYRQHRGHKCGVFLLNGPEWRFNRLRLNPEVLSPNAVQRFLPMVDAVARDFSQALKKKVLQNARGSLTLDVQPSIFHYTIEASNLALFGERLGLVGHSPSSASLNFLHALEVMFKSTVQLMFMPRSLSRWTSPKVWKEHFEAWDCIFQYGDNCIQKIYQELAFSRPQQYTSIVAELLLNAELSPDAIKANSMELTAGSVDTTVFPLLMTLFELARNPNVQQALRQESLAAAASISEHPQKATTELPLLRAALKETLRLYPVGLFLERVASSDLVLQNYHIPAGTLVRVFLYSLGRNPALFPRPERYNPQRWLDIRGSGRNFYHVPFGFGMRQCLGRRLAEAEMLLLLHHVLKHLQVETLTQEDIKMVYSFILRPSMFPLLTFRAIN
In words: G-402 cellular enzyme assay, human CYP11B1 (cortisol release, HTRF). To be noted: G-402 cells, 1 μM Deoxycortisol. It is filed as cell-based. The method, boiled down:
(§1)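 G-402 cells stably expressing human CYP11B1 or CYP11B2 incubated 16 h in DMEM/F12 with 2.5% charcoal-treated FCS, compound, and 1 μM 11-deoxycortisol (B1) or 1 μM deoxycorticosterone (B2). Cortisol (B1) or aldosterone (B2) in supernatant measured by HTRF; EC50 from 4-parameter MMF fit.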
In general terms: In TR-FRET formats the signal depends on donor and acceptor labels being close together.

A further assay deals with T2, human CYP11B2 (Homo sapiens, UniProt P19099).
T2 construct: expressed in transfected cells
T2 sequence (P19099 25-503): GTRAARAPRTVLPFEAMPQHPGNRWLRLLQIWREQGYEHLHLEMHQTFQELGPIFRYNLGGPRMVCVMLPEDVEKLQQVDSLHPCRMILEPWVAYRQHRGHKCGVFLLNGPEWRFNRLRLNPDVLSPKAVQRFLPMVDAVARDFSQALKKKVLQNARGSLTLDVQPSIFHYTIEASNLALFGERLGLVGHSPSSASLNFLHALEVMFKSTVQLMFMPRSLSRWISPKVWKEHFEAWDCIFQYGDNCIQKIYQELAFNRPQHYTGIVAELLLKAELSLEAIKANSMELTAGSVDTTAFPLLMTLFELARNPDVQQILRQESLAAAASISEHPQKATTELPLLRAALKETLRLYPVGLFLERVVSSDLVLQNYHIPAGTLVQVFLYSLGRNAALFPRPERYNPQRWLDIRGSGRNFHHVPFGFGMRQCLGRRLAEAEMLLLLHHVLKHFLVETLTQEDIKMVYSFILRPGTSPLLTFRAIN
Description: G-402 cellular enzyme assay, human CYP11B2 (aldosterone release, HTRF). It is filed as cell-based. The following applies: G-402 cells, 1 μM Deoxycorticosterone. In short, it runs like this: as §1

Consider `Cc1nc2ccccc2n1Cc1cncc(N2CCc3cc(Cl)ccc3C2=O)c1` [Example 181, 6-Chloro-2-[5-(2-methyl-benzoimidazol-1-ylmethyl)-pyridin-3-yl]-3,4-dihydro-2H-isoquinolin-1-one], for which the values for the EC50 on human CYP11B1 and at human CYP11B2 were 1970 nM and 217 nM, respectively.
Regarding `CCS(=O)(=O)N1CCC(Oc2cncc(N3C(=O)c4ccc(Cl)cc4C3(C)C)c2)C1` (stereo not drawn) [Example 446, 5-Chloro-2-[5-(1-ethanesulfonyl-pyrrolidin-3-yloxy) -pyridin-3-yl]-3,3-dimethyl-2,3-dihydro-isoindol-1-one], the EC50 on human CYP11B1 was determined as 263 nM; at human CYP11B2 it was 185 nM.
`O=C1c2ccc(Cl)cc2CCN1c1cncc2cccc([N+](=O)[O-])c12` [Example 286, 6-Chloro-5′-nitro-3,4-dihydro-[2,4′]biisoquinolinyl-1-one]: the EC50 was found to be 3040 nM on human CYP11B1 and 265 nM on human CYP11B2.
In the same order, the values of `O=C1c2ccc(Cl)cc2CCN1c1cncc(Cc2cc(Cl)ccc2Cl)c1` [Example 217, 6-Chloro-2-[5-(2,5-dichloro-benzyl)-pyridin-3-yl]-3,4-dihydro-2H-isoquinolin-1-one] are 803 nM and 92 nM.
With `CC(=O)NC1CCc2c1cncc2N1Cc2cc(Cl)ccc2C1=O` (single isomer, unassigned; (+)) [Example 319, (+)-N—[(R or S)-4-(5-Chloro-1-oxo-1,3-dihydro-isoindol-2-yl)-6,7-dihydro-5H-[2]pyrindin-7-yl]-acetamide], the EC50 at human CYP11B1 came out at 5130 nM; at human CYP11B2, 109 nM.
Consider `COC[C@@H]1CCCN1c1cncc(N2CCc3cc(Cl)ccc3C2=O)c1` [Example 49, 6-Chloro-2-[5-((S)-2-methoxymethyl-pyrrolidin-1-yl)-pyridin-3-yl]-3,4-dihydro-2H-isoquinolin-1-one], for which the EC50 on human CYP11B1 stood at 188 nM; at human CYP11B2, 49.6 nM.
As to `Cn1nccc1Cc1cncc(N2CCc3cc(Cl)ccc3C2=O)c1` [Example 208, 6-Chloro-2-[5-(2-methyl-2H-pyrazol-3-ylmethyl)-pyridin-3-yl]-3,4-dihydro-2H-isoquinolin-1-one], the EC50 on human CYP11B1 turned out to be 18.9 nM; at human CYP11B2, 2.1 nM.
Consider `Nc1ccn(Cc2cncc(N3CCc4cc(Cl)ccc4C3=O)c2)n1` [Example 382, 2-[5-(3-Amino-pyrazol-1-ylmethyl)-pyridin-3-yl]-6-chloro-3,4-dihydro-2H-isoquinolin-1-one], for which the EC50 on human CYP11B1 came to 1520 nM; on human CYP11B2 it was 33.9 nM.
`CC(C)c1nccn1Cc1cncc(N2C(=O)c3ccc(Cl)cc3CC2C)c1` (stereo not drawn) [Example 87, 6-Chloro-2-[5-(2-isopropyl-imidazol-1-ylmethyl)-pyridin-3-yl]-3-methyl-3,4-dihydro-2H-isoquinolin-1-one]: the EC50 at human CYP11B1 came out at 9370 nM; on human CYP11B2, 251 nM.
On to `COc1cncc(N2CCc3nc(Cl)ccc3C2=O)c1` [Example 96, 2-Chloro-6-(5-methoxy-pyridin-3-yl)-7,8-dihydro-6H-[1,6]naphthyridin-5-one], for which the EC50 worked out at 533 nM at human CYP11B1 and 45.8 nM at human CYP11B2.
Consider `CCc1nc(C)cn1Cc1cncc(N2CCc3cc(Cl)ccc3C2=O)c1` [Example 143, 6-Chloro-2-[5-(2-ethyl-4-methyl-imidazol-1-ylmethyl)-pyridin-3-yl]-3,4-dihydro-2H-isoquinolin-1-one], for which the EC50 was 4450 nM at human CYP11B1 and 258 nM at human CYP11B2.
On the same counts, the results for `Cn1ncc2c(N3CCc4cc(Cl)ccc4C3=O)cncc21` [Example 27, 6-Chloro-2-(1-methyl-1H-pyrazolo[3,4-c]pyridin-4-yl)-3,4-dihydro-2H-isoquinolin-1-one] are 731 nM and 75.3 nM.
On the same counts, the results for `O=C1c2ccc(Cl)cc2CCN1c1cncc(-c2cccc(F)c2)c1` [Example 231, 6-Chloro-2-[5-(3-fluoro-phenyl)-pyridin-3-yl]-3,4-dihydro-2H-isoquinolin-1-one] are 469 nM and 23.3 nM.
Consider `Cn1ccnc1C(=O)NCc1cncc(N2C(=O)c3ccc(Cl)cc3C2(C)C)c1` [Example 432, 1-Methyl-1H-imidazole-2-carboxylic acid [5-(6-chloro-1,1-dimethyl-3-oxo-1,3-dihydro-isoindol-2-yl)-pyridin-3-ylmethyl]-amide], for which the EC50 stood at 1450 nM on human CYP11B1 and 22.2 nM at human CYP11B2.
Take `CCS(=O)(=O)NCc1cncc(N2C(=O)c3ccc(C#N)cc3C2(C)C)c1` [Example 389, Ethanesulfonic acid [5-(6-cyano-1,1-dimethyl-3-oxo-1,3-dihydro-isoindol-2-yl)-pyridin-3-ylmethyl]-amide]: the EC50 was determined as 2950 nM at human CYP11B1 and 115 nM on human CYP11B2.
On the same counts, the results for `O=C1c2ccc(Cl)cc2CCN1c1cncc(CNc2cccc(F)c2)c1` [Example 259, 6-Chloro-2-{5-[(3-fluoro-phenylamino)-methyl]-pyridin-3-yl}-3,4-dihydro-2H-isoquinolin-1-one] are 73.8 nM and 12.2 nM.
On the same counts, the results for `O=C1c2ccc(Cl)cc2CCN1c1cncc(CN2C(=O)CC[C@H]2CO)c1` [Example 83, 6-Chloro-2-[5-((S)-2-hydroxymethyl-5-oxo-pyrrolidin-1-ylmethyl)-pyridin-3-yl]-3,4-dihydro-2H-isoquinolin-1-one] are 15700 nM and 590 nM.
Regarding `Cn1ccnc1C(O)c1cncc(N2CCc3cc(Cl)ccc3C2=O)c1` (stereo not drawn) [Example 30, 6-Chloro-2-{5-[hydroxy-(1-methyl-1H-imidazol-2-yl)-methyl]-pyridin-3-yl}-3,4-dihydro-2H-isoquinolin-1-one], the EC50 amounted to 2070 nM on human CYP11B1 and 751 nM at human CYP11B2.
On to `O=C1c2ccc(Cl)cc2CCN1c1cncc(CNc2ccc(F)cc2)c1` [Example 258, 6-Chloro-2-{5-[(4-fluoro-phenylamino)-methyl]-pyridin-3-yl}-3,4-dihydro-2H-isoquinolin-1-one], for which the figures for the EC50 at human CYP11B1 and at human CYP11B2 were 41.8 nM and 3.7 nM, respectively.
As for `CCS(=O)(=O)N1CCCC(c2cncc(N3C(=O)c4ccc(Cl)cc4C3(C)C)n2)C1` (stereo not drawn) [Example 464, 5-Chloro-2-[6-(1-ethanesulfonyl-piperidin-3-yl)-pyrazin-2-yl]-3,3-dimethyl-2,3-dihydro-isoindol-1-one], the EC50 on human CYP11B1 worked out at 1650 nM; at human CYP11B2, 2.8 nM.
In the same order, the values of `O=C1c2ccc(Cl)cc2CCN1c1cncc(CN2CCCC(F)(F)C2)c1` [Example 172, 6-Chloro-2-[5-(3,3-difluoro-piperidin-1-ylmethyl)-pyridin-3-yl]-3,4-dihydro-2H-isoquinolin-1-one] are 144 nM and 22.3 nM.
On the same counts, the results for `Cc1cc(-c2cncc(N3CCc4cc(Cl)ccc4C3=O)c2)n(C)n1` [Example 422, 6-Chloro-2-[5-(2,5-dimethyl-2H-pyrazol-3-yl)-pyridin-3-yl]-3,4-dihydro-2H-isoquinolin-1-one] are 11100 nM and 154 nM.
With `O=C1c2ccc(Cl)cc2CCN1c1cncc(-c2ccc(Cl)c(F)c2)c1` [Example 240, 6-Chloro-2-[5-(4-chloro-3-fluoro-phenyl)-pyridin-3-yl]-3,4-dihydro-2H-isoquinolin-1-one], the EC50 at human CYP11B1 is 3270 nM; at human CYP11B2 it was 115 nM.
For `Cn1cnnc1Cc1cncc(N2CCc3cc(Cl)ccc3C2=O)c1` [Example 268, 6-Chloro-2-[5-(4-methyl-4H-[1,2,4]-triazol-3-ylmethyl)-pyridin-3-yl]-3,4-dihydro-2H-isoquinolin-1-one], the EC50 at human CYP11B1 came out at 14200 nM; on human CYP11B2, 1650 nM.
In the case of `COc1ccc2c(n1)CCN(c1cccnc1)C2=O` [Example 98, 2-Methoxy-6-pyridin-3-yl-7,8-dihydro-6H-[1,6]naphthyridin-5-one], the figures for the EC50 on human CYP11B1 and on human CYP11B2 were 6830 nM and 227 nM, respectively.
For the compound `COC[C@@H]1CCCN1Cc1cncc(N2CCc3cc(Cl)ccc3C2=O)c1` [Example 48, 6-Chloro-2-[5-((S)-2-methoxymethyl-pyrrolidin-1-ylmethyl)-pyridin-3-yl]-3,4-dihydro-2H-isoquinolin-1-one], the EC50 on human CYP11B1 turned out to be 1110 nM; at human CYP11B2, 141 nM.
Regarding `CCC(=O)N[C@@H]1CCCc2c1cncc2N1C(=O)c2cc(Cl)ccc2[C@H]1CC` (single isomer, unassigned) [Example 312, N-[(R or S)-4-((R or S)-5-Chloro-1-ethyl-3-oxo-1,3-dihydro-isoindol-2-yl)-5,6,7,8-tetrahydro-isoquinolin-8-yl]-propionamide], the figures for the EC50 at human CYP11B1 and on human CYP11B2 were 4010 nM and 48.2 nM, respectively.

For orientation: EC50 means the concentration needed to bring the measured effect to its halfway point. Low values mean higher potency in that assay, high ones lower potency in that assay.
